Results from US5817776A, “Amino acid analogs for tumor imaging” (priority 1996, dated 1998).

Tests used:
in vivo = conditions: rat, in vivo, iv, Mean % Injected Dose/Gram
Procedure: (§1) In vivo distribution of a compound of the invention, [^18 F]-1-amino-3-fluoro-cyclobutane-1-carboxylic acid (FACBC) was measured in rats having an implanted gliosarcoma. Accumulation in various tissue was measured at 5 min and 60 min post-administration.
(§2) Distribution of Radioactivity in Tissues of Unfasted Male
(§3) Fisher Rats following Intravenous Administration of [^18 F]FACBC

implanted gliosarcoma = assay: in vivo; conditions: for Bone, Mean % Injected Dose/Gram: unfasted male fisher rats, average of 4 rats
Procedure: as §1, §2, §3

[1] = system: human astrocyte tumor cells; assay: Binding to human astrocyte tumor cells in a human patient; format: in vivo
[2] = system: metastatic lesions in the brain; conditions: cited from earlier work
several tumor types = conditions: labeled with carbon-14 or carbon-11, animals, Washburn et al. 1979; cited from earlier work
[3] = system: N-methyl-D-aspartic acid (NMDA) receptor, strychnine-insensitive glycine recognition site; conditions: cited from earlier work
normal tissue = conditions: in vivo; cited from earlier work
[4] = 60 min, intravenous, male fisher rats with implanted gliosarcoma

## NC1(C(=O)O)CC([18F])C1 (stereo not shown) [[^18 F]FACBC, [^18 F]-1-amino-3-fluorocyclobutane-1-carboxylic acid]
In vivo; Blood, 5 min, unfasted male fisher rats, average of 4 rats
  tissue uptake at 5 min: 0.58 %ID/g
In vivo; Blood, 60 min, unfasted male fisher rats, average of 4 rats
  tissue uptake at 1 h: 0.32 %ID/g
In vivo; Bone, 5 min, unfasted male fisher rats, average of 4 rats
  tissue uptake at 5 min: 0.52 %ID/g
In vivo; Bone, 60 min, unfasted male fisher rats, average of 4 rats
  tissue uptake at 1 h: 0.38 %ID/g
In vivo; Brain (B)
  tissue uptake at 5 min: 0.11 %ID/g
  tissue uptake at 1 h: 0.26 %ID/g
In vivo; Heart
  tissue uptake at 5 min: 0.7 %ID/g
  tissue uptake at 1 h: 0.56 %ID/g
In vivo; Kidney
  tissue uptake at 5 min: 1.08 %ID/g
  tissue uptake at 1 h: 0.6 %ID/g
In vivo; Liver
  tissue uptake at 5 min: 1.1 %ID/g
  tissue uptake at 1 h: 1.7 %ID/g
In vivo; Lung
  tissue uptake at 5 min: 1.13 %ID/g
  tissue uptake at 1 h: 0.64 %ID/g
In vivo; Muscle
  tissue uptake at 5 min: 0.27 %ID/g
  tissue uptake at 1 h: 0.41 %ID/g
In vivo; Spleen
  tissue uptake at 5 min: 1.55 %ID/g
  tissue uptake at 1 h: 0.68 %ID/g
In vivo; Testis
  tissue uptake at 5 min: 0.25 %ID/g
  tissue uptake at 1 h: 0.28 %ID/g
In vivo; Tumor (T), 5 min, male fisher rats with implanted gliosarcoma
  tissue uptake at 5 min: 0.61 %ID/g
In vivo; Tumor (T), 60 min, male fisher rats with implanted gliosarcoma
  tissue uptake at 1 h: 1.72 %ID/g
Implanted gliosarcoma; 5 min, intravenous, male fisher rats with implanted gliosarcoma
  T/B (tumor to brain ratio): 5.58
Implanted gliosarcoma; 5 min, intravenous
  Bone, Mean % Injected Dose/Gram: 0.52 % Injected Dose/Gram
Implanted gliosarcoma; [4]
  T/B (tumor to brain ratio): 6.6
  Tumor (T), Mean % Injected Dose/Gram: 1.72 % Injected Dose/Gram
Implanted gliosarcoma; 60 min, intravenous
  Bone, Mean % Injected Dose/Gram: 0.38 % Injected Dose/Gram
Implanted gliosarcoma; rat, in vivo, iv
  T/B (tumor to brain ratio): 6.61
  stability to in vivo defluorination (bone uptake): Uptake by bone was essentially constant over the 60 minutes of exposure, indicating stability of the 2-cyclobutyl group to significant in vivo defluorination
  tumor uptake / tumor to brain discrimination (in words): preferentially associated with tumor tissue as early as 5 minutes post administration
Implanted gliosarcoma; rat, in vivo, iv, 5 min
  Brain (B), Mean % Injected Dose/Gram: 0.11 % Injected Dose/Gram
Implanted gliosarcoma; rat, in vivo, iv, 1 h
  Brain (B), Mean % Injected Dose/Gram: 0.26 % Injected Dose/Gram
[1]
  binding to human astrocyte tumor cells (in words): highly specific binding to human astrocyte tumor cells

## NC1(C(=O)O)CCC1 [ACBC, 1-aminocyclobutanecarboxylic acid]
[2]
  substrate for protein synthesis in metastatic lesions; normal brain uptake (in words): selective substrate for protein synthesis in metastatic lesions in the brain with little observable uptake in normal brain tissue
Several tumor types
  incorporation by tumors (in words): incorporated preferentially by several tumor types in animals
[3]
  NMDA receptor ligand and antagonist activity (in words): selective and potent ligand and antagonist

## CSCC[C@H](N)C(=O)O [[^11 C] methionine, methionine]
Normal tissue
  uptake in normal tissue (in words): relatively high uptake in normal tissue
